Test results: BindingDB's records for doi:10.1080/14756360109162375 (University of North Carolina, 2001)

Target: T1, N(4)-(beta-N-acetylglucosaminyl)-L-asparaginase (Homo sapiens, UniProt P20933)
T1 sequence (P20933 whole entry): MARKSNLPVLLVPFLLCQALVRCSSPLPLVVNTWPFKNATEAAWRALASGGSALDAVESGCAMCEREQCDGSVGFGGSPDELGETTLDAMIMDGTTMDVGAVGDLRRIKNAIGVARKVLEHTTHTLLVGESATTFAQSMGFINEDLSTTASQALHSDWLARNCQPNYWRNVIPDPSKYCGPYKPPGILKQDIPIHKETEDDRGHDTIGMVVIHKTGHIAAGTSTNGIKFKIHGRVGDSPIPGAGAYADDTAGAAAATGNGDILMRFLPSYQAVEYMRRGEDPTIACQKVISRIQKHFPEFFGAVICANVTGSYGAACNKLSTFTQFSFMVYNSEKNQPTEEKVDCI
Assay: Inhibition Assay
Conditions: pH 5.8; 37 °C
Procedure: Glycosylasparaginase activity was measured in citrate-phosphate buffer at pH 5.8 at 37 C. N-Acetyl-D-glucosamine released during the reaction was measured using the Morgan-Elson assay.

Row | Structure (SMILES) | Ki [µM]
1 | CC(CC(=O)O)C(=O)O [D,L-2-Methylsuccinic acid, 5] | 700
2 | CC(=O)NC1C(NC(=O)CN)OC(CO)C(O)C1O (stereo not given) [GlcNAc-Asn analogue, 10] | 750
3 | N[C@@H](CC(=O)O)C(=O)O [L-Aspartic acid, 2] | 600
4 | O=C(O)CCC(=O)O [Succinic acid, 6] | 5000
5 | CC(=O)NC1C(NC(=O)CCl)OC(CO)C(O)C1O (stereo not given) [GlcNAc-Asn analogue, 11] | 640
6 | O=C(O)CC(Cl)C(=O)O [L-2-Chlorosuccinic acid, 3] | 7700
7 | CC(=O)NC1C(NC(=O)CBr)OC(CO)C(O)C1O (stereo not given) [GlcNAc-Asn analogue, 12] | 560
8 | N[C@H](CP(=O)(O)O)C(=O)O [CAS_23052-80-4] | 900
9 | O=C(O)CC(Br)C(=O)O [L-2-bromosuccinic acid, 4] | 2700
10 | N[C@H](CS(=O)(=O)O)C(=O)O [L-cysteic acid] | 1400
